“Also recorded” adds a separate entry of the source.
Experiments:
[1] = system: oligodendrocyte progenitor cells (OPCs); experiment: MTT reduction assay on purified OPC cultures; assay type: cell-based, mouse; conditions: 10 μM; for Effect on metabolic activity of OPCs (MTT reduction): 48 h incubation, purified mouse OPCs, vs DMSO controls
Protocol: Purified mouse OPCs were grown for 24 h and treated with EDA 1 and analogues 2b–4c (10 μM) for 44 h; then, MTT was added and OPCs were incubated for 4 h.
Primary cultures of purified OPC (>99%) were obtained from the cerebral hemispheres of newborn CD1 Swiss mice according to the authorization for the care and use of laboratory animals mentioned in Section 4.2.1. OPCs were grown in a defined serum-free Dulbecco’s Modified Eagle Medium (DMEM) without thyroid hormones at 1 × 10^5 cells/cm^2 into poly-L-lysine-coated 96-well microtiter plates for 3 days.
One day after plating, purified OPCs were incubated with or without EDA analogues (10 µM) in DMSO (0.001% vehicle) for 48 h. MTT reduction to formazan was carried out as previously described. MTT (Sigma-Aldrich, Milan, Italy) was added to the culture medium at a final 0.25 mg/mL concentration during the last 4 h of incubation.

[2] = Determination of distribution coefficient LogD7.4 (1-octanol/PBS); assay type: physicochemical; conditions: 1-octanol/PBS pH 7.4; ± SD; read-out: Log D7.4
Protocol: (§1) We experimentally confirmed their predicted poor to medium–good permeability profile by measuring their LogD at physiological pH through a known procedure, and by determining their percentage bound to model lipid bilayers after incubation, as a measure of their affinity for cell-membrane-like liposomes. Results are shown in Table 2 (LogD7.4, column 2; interaction with liposomes at 20 °C and 37 °C, columns 3 and 4, respectively).
LogD7.4 values were determined by slightly modifying a reported procedure. Namely, an 80 mM solution of each selected EDA analogue in DMSO was diluted in 1-octanol at a final 800 μM concentration. UV–vis spectra were acquired to determine λmax and the necessary dilutions to obtain absorption values for each tested analogue; between 0.5 and 1. 5 mL of each solution were placed in 15 mL conical centrifuge tubes, PBS was added (5 mL, pH 7.4) and the biphasic system was vigorously mixed using a vortex mixer (VELP Scientifica, Usmate Velate, MB, Italy) for 4 min. After centrifugation (2000× g, 30 min), the 1-octanol phase absorption was measured at each compound’ λmax; the procedure was repeated to acquire data in triplicate. The distribution coefficient logD7.4 was calculated according to the following equation: LogD7.4 = Log ([C]oct/[C]PBS) = Log (Af/Ai − Af)(2) where Ai is the pre-extraction measured absorbance in 1-octanol and Af is the post-extraction final measured absorbance in 1-octanol.

[3] = Interaction with liposome cell membrane models; assay type: in vitro ADME
Protocol: as §1
EDA analogues dissolved in MeOH (0.1 mL) were added to 0.9 mL of large unilamellar phosphatidylcholine vesicles (PC LUVs) in PBS (3 mM lipid final concentration; 0.6 mM EDA analogue final concentration) and incubated at 37 °C for 20 min. Then, any remaining free EDA analogue was separated from liposomes by size-exclusion chromatography.
A disposable syringe (2.5 mL) packed with hydrated Sephadex G-50 resin was placed in a 15 mL plastic test tube and preconditioned with PBS; then, the liposomal suspension (1 mL) was gently added on the top of the syringe and centrifuged at 500× g for 10 min. The eluate was collected at the bottom of the test tube and lysed by addition of Triton X-100 (final concentration 1% v/v). The concentration of each EDA analogue in each solution was estimated with the Folin–Ciocalteu assay. Namely, 50% Folin–Ciocalteu reagent (150 μL) was added to test samples (50 μL) into a 96-well microplate and shaken. After 10 min, a 7.5% sodium carbonate solution (0.1 mL) was added; the mixtures were incubated in the dark for 1 h at rt; and, finally, the absorbance was measured at 765 nm on a BioTek SynergyHT MicroPlate Reader spectrophotometer (Marshall Scientific, Hampton, NH, USA) using an appropriate blank. Reference calibration curves were plotted for every sample. The ratio (%) of the drug incorporated into the lipid bilayer was then calculated according to the following equation:% ratio of incorporated antioxidant = 100 × [incorporated amount]/[added amount](3)

Cu-induced ROS = Cu-induced ROS inhibition; conditions: ± SD
Source text: Table 2 In vitro profiling for EDA 1 and selected analogues 2b, 2c and 4a. | column: Cu-Induced ROS Inhibition ^c,a

[4] = Chemical stability in biological media (DPPH assay and TLC); assay type: in vitro ADME; conditions: PBS and standard medium, 20 min
Protocol: We investigated the stability of 4′-ester EDA 2c and N^1-carbamate 4′-ester EDA 4a (respectively, black and grey bars, Figure 5) in biological media, checking both ester and N^1-carbamate stability in 4a both by thin-layer chromatography (TLC) and by checking the DPPH radical scavenging activity of 2c and 4a after incubation.
Namely, 2c and 4a were incubated in PBS and in standard medium at 20 °C and 37 °C for 20 min; then, DPPH was added and the radical scavenging activity was measured in all media.
4′-Ester 2c and N^1-carbamate ester 4a were incubated in PBS and in a standard cell culture medium supplemented with FBS 10% at 20 °C and 37 °C. After 20 min, appropriate aliquots of the solutions were mixed with DPPH in methanol (25 µM, DPPH 100 µM, final concentration) and the DPPH radical scavenging assay was carried out as described above. Assay media after incubation were also monitored by TLC (eluent mixture: 1:1 cyclohexane/AcOEt).

[5] = system: oligodendrocyte progenitor cells (OPCs); experiment: MTT reduction assay on purified OPC cultures; assay type: cell-based, mouse; conditions: lower dosages than 10 μM (not shown)
[6] = DPPH radical scavenging assay; conditions: 25 µM analogue, 100 µM DPPH, MeOH, 30 min incubation
Protocol: A DPPH assay was carried out after 30 min of incubation with EDA 1 and its analogues in reported conditions to determine their radical scavenging ability.
The DPPH free radical scavenging activity of EDA analogues was determined using a previously described method. Appropriate aliquots of putative antioxidants 1–13c were mixed with DPPH in methanol (25 µM EDA analogue, 100 µM DPPH, final concentration); the reaction mixtures were shaken and then incubated for 30 min in the dark. Their absorbances, and the absorbance of a DPPH solution as a negative control, were then measured at 517 nm with a BioTek SynergyHT MicroPlate Reader spectrophotometer (Marshall Scientific, Hampton, NH, USA) against methanol as blank. The scavenging percentage of each EDA analogue was calculated according to the following equation:DPPH radical scavenging (%) = [(Acontrol—Asample)/Acontrol] × 100,(1) where Acontrol is the control absorbance obtained by adding a methanol aliquot equal to the EDA analogue solution volume added to the methanolic DPPH solution and Asample is the absorbance of each test solution after 30 min incubation. All experiments were repeated at least three times, and measurements were run in triplicate.

SMILES | Effect on metabolic activity of OPCs (MTT reduction) [1] | logD [2] | Affinity for a Model Lipid Bilayer, % ratio of liposome-bound EDA analogue ([3]; 20 °C) [%] | Affinity for a Model Lipid Bilayer, % ratio of liposome-bound EDA analogue ([3]; 37 °C) [%] | IC50 (Cu-induced ROS) [µM] | DPPH radical scavenging/antioxidant activity [6] | also measured
COC(=O)c1ccc(-n2c(=O)cc(C)n2C(=O)OC(C)(C)C)cc1 [Compound 4a, Tert-butyl 2-(4-(methoxycarbonyl)phenyl)-5-methyl-3-oxo-2,3-dihydro-1H-pyrazole-1-carboxylate] | stimulated OPC metabolism comparably to EDA 1; also recorded: comparable stimulation of OPC metabolism | 2.3 ± 0.4 | 88 ± 6 | 77 ± 4 | 65 ± 6 |  | DPPH radical scavenging activity after incubation in biological media ([4]; 20 °C): did not scavenge DPPH; Stability in biological media by TLC ([4]; 20 °C): stability was confirmed by TLC; DPPH radical scavenging activity after incubation in biological media ([4]; 37 °C): significant antioxidant activity was detected; Stability in biological media by TLC (N^1-carbamate) ([4]; 37 °C): N^1-carbamate hydrolysis and 2c formation; also recorded: fully removed
CC1=NN(c2ccc(C(=O)NCc3ccc(C4(C(F)(F)F)N=N4)cc3)cc2)C(=O)C1 [Compound 2f] | lack of activity on OPCs |  |  |  |  |  | Cytotoxicity on OPCs in MTT assay [1]: cytotoxic at this concentration; OPC activity in MTT assay at lower dosages [5]: inactive at lower dosages
CC1=NN(c2ccc(C(=O)O)cc2)C(=O)C1 [Compound 2b] |  | -0.74 ± 0.19 | 38 ± 4 | 45 ± 2 | 38 ± 5 | significantly more potent than EDA 1; also recorded: significantly higher antioxidant activity than parent EDA 1 | 
CC1=NN(c2ccccc2)C(=O)C1 [Compound 1, edaravone, reference compound] |  | 1.1 ± 0.1 | 37 ± 3 | 53 ± 2 | 14 ± 2 |  | 
CC1=NN(c2ccc(C(=O)NCCN=[N+]=[N-])cc2)C(=O)C1 [Compound 2d] | did not stimulate OPC development compared to DMSO controls; also recorded: lack of activity on OPCs |  |  |  |  | comparable antioxidant activity to EDA 1 | 
O=C1CC(COCc2ccccc2)=NN1c1ccccc1 [Compound 3b] |  |  |  |  |  | comparable antioxidant activity to EDA 1 | 
CC1=NN(c2ccc(CN=[N+]=[N-])cc2)C(=O)C1 [Compound 2h] | did not stimulate OPC development compared to DMSO controls; also recorded: lack of activity on OPCs |  |  |  |  | comparable antioxidant activity to EDA 1 | 
CC1=NN(c2ccc(CO)cc2)C(=O)C1 [Compound 2g] |  |  |  |  |  | comparable antioxidant activity to EDA 1 | 
COC(=O)c1ccc(N2N=C(C)CC2=O)cc1 [Compound 2c, Methyl 4-(3-methyl-5-oxo-4,5-dihydro-1H-pyrazol-1-yl)benzoate] | stimulated OPC metabolism comparably to EDA 1; also recorded: comparable stimulation of OPC metabolism | 1 ± 0.1 | 52 ± 2 | 71 ± 2 | 53 ± 7 | comparable antioxidant activity to EDA 1 | DPPH radical scavenging activity after incubation in biological media ([4]; 20 °C and 37 °C): expected radical scavenging activity; Stability in biological media by TLC ([4]; 20 °C and 37 °C): stability in biological media was confirmed
CCC1=NN(c2ccccc2)C(=O)C1 [Compound 3a] |  |  |  |  |  | comparable antioxidant activity to EDA 1 | Cytotoxicity on OPCs in MTT assay [1]: cytotoxic at this concentration; OPC activity in MTT assay at lower dosages [5]: inactive at lower dosages
CC1=NN(c2ccc(C(=O)NCCCCCCN=[N+]=[N-])cc2)C(=O)C1 [Compound 2e] | did not stimulate OPC development compared to DMSO controls; also recorded: lack of activity on OPCs |  |  |  |  |  | 

From paper PMC10574562 (Molecules, 2023)
